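Compound exposure: 48 hours, 5 concentrations, 96-well plates. GI50 = concentration required for 50% inhibition of growth.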 Active and inactive are the calls of the source. Rule as the data show it: active = GI50 up to about 1.1 µM and inactive = higher.
Legend:
Assay in all cases: NCI-60 cell line screen, 48 h
HOP-62 = system: HOP-62
KM12 = system: KM12
UACC-257 = system: UACC-257
SK-MEL-28 = system: SK-MEL-28
LOX IMVI = system: LOX IMVI
ACHN = system: ACHN
UO-31 = system: UO-31
786-0 = system: 786-0
CAKI-1 = system: CAKI-1
NCI-H23 = system: NCI-H23
HOP-92 = system: HOP-92
TK-10 = system: TK-10
PC-3 = system: PC-3
SK-MEL-2 = system: SK-MEL-2
MOLT-4 = system: MOLT-4
SK-MEL-5 = system: SK-MEL-5
K562 = system: K562
HCT-15 = system: HCT-15
OVCAR-5 = system: OVCAR-5
SF-539 = system: SF-539

Structure (SMILES) | GI50 (HOP-62) | GI50 (KM12) | GI50 (UACC-257) | GI50 (SK-MEL-28) | GI50 (LOX IMVI) | GI50 (ACHN) | GI50 (UO-31) | GI50 (786-0) | GI50 (CAKI-1) | GI50 (NCI-H23) | GI50 (HOP-92) | GI50 (TK-10) | GI50 (PC-3) | GI50 (SK-MEL-2) | GI50 (MOLT-4) | GI50 (SK-MEL-5) | GI50 (K562) | GI50 (HCT-15) [µM] | GI50 (OVCAR-5) | GI50 (SF-539)
O=C1c2cccc3cc([N+](=O)[O-])cc(c23)C(=O)N1O | 32.8 µM (inactive) | 20.6 µM (inactive) | 33.7 µM (inactive) | 45.8 µM (inactive) | 25.9 µM (inactive) | 28.1 µM (inactive) | 31.7 µM (inactive) | 45.2 µM (inactive) | 31.7 µM (inactive) | 30.8 µM (inactive) | 57 µM (inactive) | 25.9 µM (inactive) | 43.5 µM (inactive) | 32.4 µM (inactive) | 28.1 µM (inactive) | 35.6 µM (inactive) | 36.8 µM (inactive) | 32.7 | 44.1 µM (inactive) | –
C[C@H]1[C@H](C)CC[C@]2(C)CC[C@]3(C)C(=C[C@@H](O)[C@@H]4[C@@]5(C)[C@H](O)[C@@H](O)[C@H](O)C(C)(C)[C@@H]5CC[C@]43C)[C@H]12 | > 100 µM (inactive) | 96.2 µM (inactive) | > 100 µM (inactive) | – | > 100 µM (inactive) | > 100 µM (inactive) | > 100 µM (inactive) | > 100 µM (inactive) | > 100 µM (inactive) | > 100 µM (inactive) | – | – | > 100 µM (inactive) | > 100 µM (inactive) | 82.4 µM (inactive) | > 100 µM (inactive) | > 100 µM (inactive) | > 100 | > 100 µM (inactive) | > 100 µM (inactive)
CCOC(=O)C1C(=O)c2ccccc2CN1Cc1ccccc1 (centres undefined) | > 100 µM (inactive) | > 100 µM (inactive) | > 100 µM (inactive) | > 100 µM (inactive) | > 100 µM (inactive) | > 100 µM (inactive) | > 100 µM (inactive) | > 100 µM (inactive) | > 100 µM (inactive) | > 100 µM (inactive) | > 100 µM (inactive) | > 100 µM (inactive) | – | > 100 µM (inactive) | > 100 µM (inactive) | > 100 µM (inactive) | > 100 µM (inactive) | > 100 | > 100 µM (inactive) | > 100 µM (inactive)
C=CC[C@H](C)CCC(=O)N1[C@H]2CC3CC[C@@]2(CS1(=O)=O)C3(C)C | > 100 µM (inactive) | 39.3 µM (inactive) | 66.1 µM (inactive) | > 100 µM (inactive) | 30.8 µM (inactive) | 40.7 µM (inactive) | 40.7 µM (inactive) | 50.6 µM (inactive) | 80.4 µM (inactive) | 22.7 µM (inactive) | > 100 µM (inactive) | > 100 µM (inactive) | 40.3 µM (inactive) | 50.2 µM (inactive) | 17.3 µM (inactive) | 21.5 µM (inactive) | – | 25.5 | > 100 µM (inactive) | –
O=C(O)CSC(NC(=O)C(C(F)(F)F)C(F)(F)F)(C(F)(F)F)C(F)(F)F | – | – | > 100 µM (inactive) | > 100 µM (inactive) | > 100 µM (inactive) | > 100 µM (inactive) | > 100 µM (inactive) | > 100 µM (inactive) | 1.38 µM (inactive) | > 100 µM (inactive) | – | > 100 µM (inactive) | > 100 µM (inactive) | > 100 µM (inactive) | > 100 µM (inactive) | > 100 µM (inactive) | > 100 µM (inactive) | > 100 | > 100 µM (inactive) | > 100 µM (inactive)
Cc1cc(=O)n2nc(SCc3ccccc3)sc2n1 | > 100 µM (inactive) | > 100 µM (inactive) | – | > 100 µM (inactive) | 77.4 µM (inactive) | 22.8 µM (inactive) | 24.3 µM (inactive) | > 100 µM (inactive) | – | > 100 µM (inactive) | 94.8 µM (inactive) | 34.4 µM (inactive) | > 100 µM (inactive) | – | 46.5 µM (inactive) | 43.2 µM (inactive) | 18.2 µM (inactive) | > 100 | > 100 µM (inactive) | > 100 µM (inactive)
NC(Cc1c[nH]c2ccc([N+](=O)[O-])cc12)C(=O)O (centres undefined) | > 100 µM (inactive) | > 100 µM (inactive) | > 100 µM (inactive) | > 100 µM (inactive) | > 100 µM (inactive) | > 100 µM (inactive) | > 100 µM (inactive) | > 100 µM (inactive) | > 100 µM (inactive) | > 100 µM (inactive) | – | > 100 µM (inactive) | > 100 µM (inactive) | > 100 µM (inactive) | > 100 µM (inactive) | > 100 µM (inactive) | > 100 µM (inactive) | > 100 | > 100 µM (inactive) | –
CC(=O)OC1CCC2(C)C(CCC3C4CC=C(C5(C)OCCO5)C4(C)CCC32)C1 (centres undefined) | 19.1 µM (inactive) | 23.6 µM (inactive) | 18.7 µM (inactive) | 21.2 µM (inactive) | 16.9 µM (inactive) | 25.1 µM (inactive) | 25.4 µM (inactive) | 30.4 µM (inactive) | 28.3 µM (inactive) | 25.6 µM (inactive) | – | 22.5 µM (inactive) | 17.3 µM (inactive) | 18.5 µM (inactive) | 17.3 µM (inactive) | 15.6 µM (inactive) | 25.1 µM (inactive) | 27.2 | 22.1 µM (inactive) | 20.5 µM (inactive)

Source: ChEMBL document CHEMBL1201862, “PubChem BioAssay data set” (2004)
